Test system: gastric emptying in rats
Test: Gastric emptying in rats (phenol red gel gavage)
Assay type: in vivo, Male Harlan Sprague Dawley (HSD) rats
Protocol: This experiment followed a modification of the method of Scarpignato, et al., Arch.
Male Harlan Sprague Dawley (HSD) rats were used.
The determination of gastric emptying by the method described below was performed after a fast of −20 hours to ensure that the stomach contained no chyme that would interfere with spectrophotometric absorbance measurements.
Twenty minutes after gavage, rats were anesthetized using 5% halothane, the stomach exposed and clamped at the pyloric and lower esophageal sphincters using artery forceps, removed and opened into an alkaline solution which was made up to a fixed volume. Stomach content was derived from the intensity of the phenol red in the alkaline solution, measured by absorbance at a wavelength of 560 nm. In separate experiments on 7 rats, the stomach and small intestine were both excised and opened into an alkaline solution. […] To account for a maximal dye recovery of less than 100%, percent of stomach contents remaining after 20 min were expressed as a fraction of the gastric contents recovered from control rats sacrificed immediately after gavage in the same experiment. Percent gastric contents remaining=(absorbance at 20 min)/(absorbance at 0 mm)×100.
In baseline studies, with no drug treatment, gastric emptying over 20 min was determined.

exendin-4 acid: exendin agonist; synthesized according to standard peptide synthesis methods
EC50 (inhibition of gastric emptying) (conscious rats, gastric contents remaining 20 min after gavage, dose-response): 0.12 µg | Inhibition of gastric emptying (in words) (rats, FIG. 6 and Table II): potent inhibitors of gastric emptying
